The structures appear in SMILES notation. pIC50: −log10 of the molar value. Read-outs that look alike come from different tables or passages of the source.

The record followed here is US8299056B2 (Signal Pharmaceuticals, LLC, priority 2008, dated 2012).

For this assay, the target named is T1, Syk (Homo sapiens, UniProt P43405).
T1 construct: purchased Carna Biosciences
Description: Syk HTRF assay. In kind it is biochemical. The procedure, abridged: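 HTRF kinase assay in HEPES pH 7.6 buffer with MgCl2, DTT and Triton X100; start mix of 87.5 μM ATP and 80 nM biotinylated peptide, 1 h at room temperature. EDTA stop, then Eu-anti-phosphotyrosine/streptavidin-DyLight 647 detection, read as 665/615 nm emission ratio.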
(In general: TR-FRET usually uses a lanthanide donor and a delayed reading to cut background.)

[1] abbreviates: read-out: Activity Level (Syk HTRF assay IC50).
[2] abbreviates: activity levels A-D, read-out: Activity Level (IC50 in the Syk HTRF assay).

As for `Oc1cccc(-c2cccc3nc(Nc4ccc(-c5ncc[nH]5)cc4)nn23)c1` [compound 16, 3-(2-(4-(1H-imidazol-2-yl)phenylamino)-[1,2,4]triazolo[1,5-a]pyridin-5-yl)phenol], the pIC50 under setting [1] was 6.60 to 11.30. Take `Cc1n[nH]c2cc(Nc3nc4cccc(N[C@H]5CC[C@@H](O)CC5)n4n3)cc(F)c12` [Example 164, cis-4-(2-(4-fluoro-3-methyl-1H-indazol-6-ylamino)-[1,2,4]triazolo[1,5-a]pyridin-5-ylamino)cyclohexanol]: the pIC50 under setting [1] is 6.60 to 11.30. For `Cc1cc(Nc2nc3cccc(CC4CCOCC4)n3n2)cnc1N1CCOCC1` [Example 535, N-(5-methyl-6-morpholinopyridin-3-yl)-5-((tetrahydro-2H-pyran-4-yl)methyl)-[1,2,4]triazolo[1,5-a]pyridin-2-amine], for the setting “IC50 activity level, read-out: Activity Level”, the pIC50 is 6.00 to 6.30. For `O[C@H]1CCN(Cc2cccc3nc(Nc4ccc(C(F)(F)F)cc4)nn23)C1` [Example 336, (S)-1-((2-(4-(trifluoromethyl)phenylamino)-[1,2,4]triazolo[1,5-a]pyridin-5-yl)methyl)pyrrolidin-3-ol], the pIC50 under setting [2] was 5.00 to 6.00. Turning to `OC[C@@H]1CCCN1c1cccc2nc(Nc3ccc(C(F)(F)F)cc3)nn12` [Example 289, (S)-(1-(2-(4-(trifluoromethyl)phenylamino)-[1,2,4]triazolo[1,5-a]pyridin-5-yl)pyrrolidin-2-yl)methanol], under setting [2], the pIC50 is 5.00 to 6.00. Regarding `Cc1n[nH]c2cc(Nc3nc4cccc(NC5COCC5O)n4n3)ccc12` (racemic) [Example 166, (±)-trans-4-(2-(3-methyl-1H-indazol-6-ylamino)-[1,2,4]-triazolo[1,5-a]pyridin-5-ylamino)tetrahydrofuran-3-ol], the pIC50 under setting [1] was 6.60 to 11.30.
